Consider 12 compounds from PubChem BioAssay (NCI).

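Method: 48-hour compound exposure of cells in 96-well plates, five concentrations, linear interpolation of endpoints. The concentration for 50% growth inhibition is given as GI50. The concentration for full growth arrest is given as TGI.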 A value given as a limit tells only on which side of the number the result lay.

What all share (test): growth of human tumour cells (NCI), 48 h
For test [1], the system named is HCT-116 colon.
Test [2] deals with RXF 393 renal.
Test [3] relates to UO-31 renal.
For test [4], the system named is NCI-H226 lung.
Test [5] relates to KM12 colon.
The test system of test [6] is SF-268 CNS.
Test [7] deals with ACHN renal.
Test [8] concerns MALME-3M melanoma.
For test [9], the system named is SN12C renal.
In test [10] the test system is SK-MEL-28 melanoma.

On to `COc1c2c(c(O)c3c4c(c(C)cc13)C1OC3(C(OC)OC5CC(C)(O)C(OC6CC(C)(O)C(O)C(C)O6)C(C)O5)OC1C(OC)(O4)C31CO1)C(=O)C(O)CC2OC1CC(C)(O)C(OC(C)=O)C(C)O1` (stereo not given), for which the TGI in test [1] is 5.74 µM; in test [2], less than 0.01 µM; in test [3], 0.154 µM; in test [4] it was less than 0.01 µM; in test [5], less than 0.01 µM; in test [6], 0.0167 µM. In addition, the results for the TGI in [7], in test [8] and in test [9] were 0.0924 µM, less than 0.01 µM and 0.113 µM, respectively.

For the compound `COc1ccc(-c2cn3ccnc3c(-c3ccc(Cl)cc3)n2)cc1`, the GI50 in test [1] is more than 100 µM; in test [2] it was 28.2 µM; in [3], 33.1 µM; in test [4], 42.8 µM; in [5], 4.68 µM; in [6], 10.6 µM. Besides, the GI50 in test [7] was 10.5 µM; in test [10], 5.37 µM; in test [9], 10.4 µM. For the same compound, the TGI in test [1] is more than 100 µM; in test [2], more than 100 µM; in [3], more than 100 µM; in test [4] it was more than 100 µM; in test [5] it was more than 100 µM; in test [6], 64.8 µM. In addition, the TGI in test [7] is 47 µM; in [10], more than 100 µM; in test [9], 46 µM.

In the case of `c1ccc(N2CCN(CCN3CCc4c([nH]c5ccccc45)C3c3cccnc3)CC2)cc1` (stereo not given), the TGI in test [1], in test [3], in test [5], in test [6], in test [7] and in test [10] was more than 100 µM in each case. For the same compound, the TGI in test [9] is more than 100 µM.

Regarding `C[C@]12CCC3c4ccc(O)cc4CCC3C1CC[C@@H]2NC(=O)/C=C/c1ccc(O)c(O)c1` (stereo not given in full), the GI50 in [1] was 10.6 µM; in test [3], 11.9 µM; in test [4], 12.3 µM; in test [5], 34.2 µM; in test [6], 11.2 µM; in test [7] it was 12.4 µM. Besides, the figures for the GI50 in test [10], in [8] and in test [9] were 9.59 µM, 25.1 µM and 13.4 µM, respectively. In addition, the TGI in [1] was 23 µM; in test [3], 47 µM; in [4] it was 37.9 µM; in [5] it was more than 100 µM; in test [6] it was 45.3 µM; in [7], 25.1 µM. Also, the TGI in test [10] worked out at 24.5 µM; in test [8] it was 70.9 µM; in [9], 34.2 µM.

On to `COc1ccccc1/C=C(\NC(=O)c1ccccc1)c1nc2ccccc2[nH]1`, for which the TGI in test [1], in test [2], in test [3], in test [5], in [6] and in test [7] was more than 100 µM throughout. The TGI in test [10], in [8] and in test [9] was more than 100 µM in each case.

Regarding `CCOc1ccc2cc(-c3nn(CC4CCN(C)CC4)c4ncnc(N)c34)ccc2c1`, the GI50 in test [1] was 12.1 µM; in test [2], 4.12 µM; in test [3], 4.2 µM; in test [4], 14.2 µM; in test [5], 18 µM; in test [6], 13.7 µM. Further, the GI50 was 14.7 µM in [7], 3.12 µM in [10] and 12 µM in [9]. The TGI was found to be 28.1 µM in [1]; 18.6 µM in test [2]; 19.5 µM in [3]; 40.3 µM in test [4]; 45.2 µM in [5]; 30.2 µM in [6]. In addition, the TGI amounted to 33 µM in test [7], 10.1 µM in test [10] and 32.1 µM in test [9].

With `C=C(c1ccccc1)c1cc2c(=O)[nH]ccc2n1C`, the TGI was 86.1 µM in [2]; 66.1 µM in test [3]; more than 100 µM in test [5]; more than 100 µM in [6]; more than 100 µM in [7]; more than 100 µM in test [10]. The TGI in test [8] and in test [9] was more than 100 µM throughout.

Regarding `Cc1cc(O)c2c(c1)OC1(C)CCC3C(C)(C)CCCC34COC2C14` (stereo not given), the TGI came out at 27.3 µM in test [1]; 33.2 µM in [3]; 31 µM in test [4]; 35.3 µM in test [5]; 30.7 µM in test [6]; 25.8 µM in test [7]. Besides, the TGI in [8] amounted to 26.3 µM; in test [9] it was 30.8 µM.

For the compound `BrCc1ccc2ccc3ccc(CBr)nc3c2n1`, the TGI worked out at 6.7 µM in test [1]; 4.69 µM in [2]; 4.57 µM in [3]; 15 µM in test [4]; 14.7 µM in test [5]; 9.04 µM in [6]. The TGI is 5.58 µM in [7], 6.02 µM in test [10] and 4.55 µM in test [9].

For `COC(OC)c1cccnc1C`, the TGI in test [1], in [2], in test [3], in test [5], in test [6] and in [7] was more than 100 µM in each case. The TGI in [10], in test [8] and in [9] was more than 100 µM each time.

With `O=C1c2ccccc2-c2c1c1ccccc1c(=O)n2CCNCCNCCNCCNCCn1c2c(c3ccccc3c1=O)C(=O)c1ccccc1-2`, the GI50 in test [1] is 0.133 µM; in test [3], 0.661 µM; in [4], 0.368 µM; in test [5], 0.655 µM; in test [6], 0.049 µM; in test [7] it was 0.0446 µM. For the same compound, the GI50 in test [10] is 1.95 µM. Moreover, the TGI was 2.09 µM in test [3]; 1.95 µM in test [4]; 5.32 µM in test [5]; 0.808 µM in test [6]; 0.58 µM in [7]; more than 100 µM in test [10].

Consider `C[C@@H]1CC2(C[C@@H](C)C3[C@@H](CC4(C)CCCC5C6=CC(O)(CC[C@]34C)OC6=CC(=O)OC5(C)C)O2)OC1=O` (stereo not given in full), for which the TGI in test [1], in test [2], in test [3], in test [4], in test [5] and in [7] was more than 100 µM in each case. Further, the TGI in [10], in test [8] and in test [9] was more than 100 µM throughout.
